The source of these data is the OPERA property sets (Mansouri et al. 2018).

Broadly, the logP is a log measure of how a compound divides between an organic and an aqueous phase.

Where a SMILES comes first, the peptide text is derived from it. [ ]: non-standard residue; d: D form. ξ: configuration not given here. ξY = NC(Cc1ccc(O)cc1)C(=O)O

In turn, `Cc1cc2oc(=O)cc(C)c2c2occc12` showed a lipophilicity (logP) of 2.84.
In the case of `CCNC(=S)NS(=O)(=O)c1cnccc1NC1CCCCCCC1` it was 3.86; in that of `Cc1ccc([N+](=O)[O-])c(C(=O)O)c1`, 1.63.
In the case of `Cc1ccc(CO)c(C=NNC(=O)c2cccc(F)c2)c1O` it was 3.41; in that of `COc1ccc(C2Cc3cc(OC)ccc3N(CCN(C)C)C(=O)C2OC(C)=O)cc1` (stereo not given), 3.2; in that of `COc1ccc(C2Cc3cc(OCc4ccccc4)ccc3N(CCN(C)C)C(=O)C2OC(C)=O)cc1` (stereo not given), 5.4.
In the case of `NS(=O)(=O)c1ccc(Cn2cnc3ccccc32)cc1` it was 1.04; in that of `O=[n+]1cnn([O-])c2ccccc21`, -0.8; in that of `CC(C)(C)[N+]([O-])=Cc1ccc(Br)cc1`, 2.
With `CCNC(=O)Cn1cccc(O)c1=O`, the logP was -0.74.
The compound `CCCc1nc(NC(C)C)nc(N2CCOCC2)n1` showed a logP of 2.26.
Regarding `Cc1cccc(Nc2ccncc2S(=O)(=O)NC(=O)NC(C)C)c1`, the logP amounted to 3.37.
`CO[C@H]1C=CO[C@@]2(C)Oc3c(C)c(O)c4c(c3C2=O)C2=NC3(CCN(CC(C)C)CC3)NC2=C(NC(=O)C(C)=CC=C[C@H](C)[C@H](O)[C@@H](C)[C@@H](O)[C@@H](C)[C@H](OC(C)=O)[C@@H]1C)C4=O`: the logP was found to be 4.5.
Regarding `CON=C(C(=O)NC1C(=O)N2C(C(C)OC(=O)OC3CCCCC3)=CCSC12)c1csc(N)n1` (stereo not given), the logP amounted to 2.52.
In the case of `CCCCC(C)CC(O)C=CC1C(O)CC2CC(CCOCC(=O)OC)CC21` (stereo not given) it was 4.5; in that of `NC(=O)C1CN(CC(=O)Nc2c(Cl)cccc2Cl)CCN1CCCC(c1ccc(F)cc1)c1ccc(F)cc1` (stereo not given), 5.26; in that of `NC(Cc1ccc(O)cc1)C(=O)N1CCCC1C(=O)NCC(=O)NC(Cc1c[nH]c2ccccc12)C(=O)O` (stereo not given) (H-YPGW-OH; configuration not given here), -1.25.
For the compound `CN(C)C(C)(C)O`, the logP worked out at 0.2.
In the case of `CC(C)NC(=NC#N)NS(=O)(=O)c1cnccc1NC1CCCCC1` it was 1.53; in that of `COc1cc(OC)nc(Oc2cccc(Cl)c2C(=O)O)n1`, 2.23.
In the case of `CNC(=S)NN=C(C)CSCC(C)=NNC(=S)NC` it was 1.38; in that of `COC(=O)C(C)NP(=O)(OCC1C=CC(n2cc(C)c(=O)[nH]c2=O)O1)Oc1ccccc1Cl` (stereo not given), 1.37.
In the case of `COc1cccc(NC(=O)OCCN2CCCCC2)c1` it was 3.32.
In turn, `N#CNc1ccccc1` had a logP of 1.87.
In the case of `COc1cccc(OCC2CN=C(N)O2)c1` (stereo not given) it was 1.34; in that of `c1ccc2c(c1)OCC(Cc1nc3ccccc3[nH]1)O2` (stereo not given), 3.29.
In the case of `O=S1CCCC1` it was -0.96.
In the case of `O=C(CCCN=C=S)c1cccnc1` it was 1.79.
Take `CC(C)NC(=NC#N)NS(=O)(=O)c1cnccc1Nc1cccc(Br)c1`: the logP is 2.27.
In the case of `CCCCCCCNc1ncnc2nc[nH]c12` it was 3.71; in that of `CN(C)CCOc1ccccc1Cl`, 2.87.
In the case of `Oc1ccccc1CNc1ncnc2nc[nH]c12` it was 2.05; in that of `COC(=O)C(=Cc1ccccc1)S(=O)(=O)c1ccc([N+](=O)[O-])cc1`, 2.9; in that of `OC(CCCN1CCC(C(O)(c2ccccc2)c2ccccc2)CC1)c1ccccc1` (stereo not given), 3.9.
In the case of `CC(NC(=O)C(N)Cc1c[nH]c2ccccc12)C(=O)O` (stereo not given) it was -1.98.
As for `COC(=O)c1c(N2CCOCC2)c(-c2ccc(Cl)cc2)cn1C(C)=O`, the logP amounted to 3.5.
In the case of `COc1ccc(CNc2[nH]cnc3ncnc2-3)cc1` it was 2.17; in that of `O=C1C=C(N2CCCCC2)C(=O)N1c1ccc(Cl)cc1`, 3.4; in that of `CCOP(=O)(OCC)C(C)(C)[N+]([O-])=Cc1c(OC)cc(OC)cc1OC`, 1.03.
In the case of `CCC(C)C(N)C(=O)NC(C(=O)O)C(C)CC` (stereo not drawn) (H-Ile-Ile-OH; configuration not given here) it was -1.82; in that of `O=C(OC1Cc2c(O)cc(O)cc2OC1c1ccc(O)c(O)c1)c1ccccc1` (stereo not given), 3.44; in that of `CCN(CC)c1ccc(-n2c(C(F)(F)F)nn(C)c2=S)cc1`, 3.79.
In the case of `COCCCNc1[nH]cnc2ncnc1-2` it was 0.75; in that of `N#Cc1[nH]cc(-c2ccc(Cl)cc2)c1N1CCOCC1`, 3.5; in that of `COC(=O)c1cccc(C)c1S(=O)(=O)NC(=O)Nc1nc(OCC(F)(F)F)nc(N(C)C)n1`, 3.56.
The compound `O=c1ccc2cc3ccsc3cc2s1` yielded a logP of 2.96.
In the case of `OCCCCNc1[nH]cnc2ncnc1-2` it was 0.32; in that of `Cc1cccc(C)c1Cc1cn[nH]c1`, 3.6.
In turn, `CC1NCCc2c1[nH]c1ccc([N+](=O)[O-])cc21` (stereo not given) gave a logP of 2.07.
In the case of `COc1ccc2c(c1)C(=O)N(CCO[N+](=O)[O-])CO2` it was 2.07.
In the case of `CCCc1nc(N(C)C)nc(N2CCOCC2)n1` it was 1.64; in that of `CC(C)(C)SSc1ncc[nH]1`, 2.56; in that of `O=c1cc(-c2ccc(Cl)cc2)oc2ccccc12`, 3.89.
In the case of `CCC(C)C(NC(=O)C(NC(=O)C(N)CC(C)C)C(C)CC)C(=O)O` (stereo not drawn) (H-Leu-Ile-Ile-OH; configuration not given here), the logP was -1.11.
In the case of `O=C(CC1CCc2cc(Br)cc3[nH]c(=O)c(=O)n1c23)Nc1ccccc1` (stereo not given) it was 2.78; in that of `C=CC(=O)OC1CCCCC1`, 2.8; in that of `Cc1cc2c(nn1)-c1ccccc1C2=O`, 1.58.
Regarding `CCCCC(O)C(CCCCOc1cccc(C)c1)n1cncn1` (stereo not given), the logP turned out to be 3.6.
In the case of `C#CCNc1nc(CCC)nc(N2CCOCC2)n1` it was 2.3; in that of `CC(C)NCC(O)c1ccc([N+](=O)[O-])cc1` (stereo not given), 1.28; in that of `Cc1cc2ncccc2c2nc(N)n(C)c12`, 1.98.
In the case of `Cc1cc2ccc3occc3c2oc1=O` it was 2.57; in that of `CN(C)CCCC(c1ccccc1)c1ccccc1`, 4.91.
In the case of `CSC(=S)N1CCCCC1` it was 1.7; in that of `Nc1nnnn1-c1cccc(F)c1`, 0.91; in that of `CC(=O)N(O)CCCCCNC(=O)CCC(=O)N(O)CCCCCNC(=O)CCC(=O)N(O)CCCCCNC=O`, -0.33.
The compound `CCCCCN(C)CC(=O)Nc1c(C)cccc1C` had a logP of 3.2.
The compound `O=C1CCC(=O)N1c1ccc(Cl)c(Cl)c1` showed a logP of 1.35.
In the case of `CCCCCCNCc1ccc(C)cc1` it was 4.96; in that of `ClCC1(C(Cl)Cl)C2CC(Cl)(Cl)C1(C(Cl)Cl)C(Cl)C2(Cl)Cl` (stereo not given), 6.64; in that of `CC(=O)c1cc(F)c(Cl)cc1Cl`, 3.4.
In the case of `COC1Cc2c(O)cc(O)cc2OC1c1ccc(O)c(O)c1` (stereo not given) it was 1; in that of `CNC(C)Cc1ccc2c(c1)OCO2` (stereo not given), 2.15.
In the case of `O=C1C=C(N2CCOCC2)CN1c1ccc(Cl)cc1` it was 1.9.
`COc1ccc(Nc2nc(O)nc(NC(C)C)n2)cc1OC`: the logP came out at 3.49.
Turning to `COCc1[nH]c(-c2ccc(OCC(O)CNCCc3ccc(OC)c(OC)c3)cc2)nc1C` (stereo not given), the logP was found to be 2.8.
In the case of `CCCSCc1cc(=O)c(O)co1` it was 1.32; in that of `CC(CO)NC(=O)Cn1ccnc1[N+](=O)[O-]` (stereo not given), -1.02; in that of `CCC(C)SSc1ncc[nH]1` (stereo not given), 2.76.
On to `Nc1nc(Cl)nc2c1ncn2[C@H]1C[C@H](O)[C@@H](CO)O1`, for which the logP turned out to be 0.02.
On to `CCNc1nc(O)nc(NCC)n1`, for which the lipophilicity (logP) was found to be 2.29.
In the case of `O=C1c2c(O)cccc2C(=CNc2ccccc2)c2cccc(O)c21` it was 4.96.
`Cc1cc2c(o1)c(C)cc1c(C)cc(=O)oc12`: the logP amounted to 3.28.
In the case of `c1[nH]nc2c1CCC1c3n[nH]cc3CCC21` (stereo not given) it was 0.3.
Regarding `COC(=O)C1=C(C)NC(C)=C(C(=O)OC)C1c1cccc2c1OCO2`, the logP turned out to be 3.46.
In the case of `CC(C)CC(N)C(=O)NC(C(=O)NCC(=O)NC(C(=O)NC(Cc1ccccc1)C(=O)O)C(C)O)C(C)C` (stereo not given) (H-LVGTF-OH; configuration not given here) it was -1.18.
In the case of `CS(=O)c1ccc2c(c1)C(c1ccccc1)=NCC(=O)N2` (stereo not given) it was 0.8; in that of `Cc1coc2c(C)c3oc(=O)ccc3cc12`, 2.81; in that of `CCOC(=O)C1=C(C)NC(C)=C(C(=O)OC)C1c1ccccc1OCOC` (stereo not given), 3.78.
In the case of `Cc1ccc(-n2nnnc2N)cc1Cl`, the logP stood at 1.89.
In the case of `CCNC1CCc2c(OC)cccc2C1C` (stereo not given) it was 2.67; in that of `CC(C)CC(NC(=O)C(Cc1ccccc1)NC(=O)CNC(=O)C(NC(=O)C(N)Cc1ccc(O)cc1)C(C)O)C(=O)O` (stereo not given) (H-YTGFL-OH; configuration not given here), -1.18; in that of `CC(C)(O)C1CCC2(C)CCCC(O)(CO)C2C1` (stereo not given), 1.54.
In the case of `COc1ccccc1CNC1CCCNC1c1ccccc1` (stereo not given) it was 3.1; in that of `Cc1c(C)c2cc3ccoc3c(C)c2oc1=O`, 3.25.
For `CS(=O)(=O)CC(=O)C=NO`, the logP is -0.69.
In the case of `CCOc1cccc(COC(=O)C2C(C=C(C)C)C2(C)C)c1` (stereo not given), the lipophilicity (logP) turned out to be 5.87.
In the case of `NC(Cc1ccc(O)cc1)C(=O)NCC(=O)NCC(=O)O` (stereo not drawn) (H-[ξY]-Gly-Gly-OH) it was -3.51; in that of `CC(C)(C)NCC(O)CON=C(C1CC1)C1CC1` (stereo not given), 1.84; in that of `COc1ccc2c(c1)COP(=O)(OCC1C=CC(n3cc(C)c(=O)[nH]c3=O)O1)O2` (stereo not given), 0.36.
In the case of `CC(=NNC(=O)c1cccc(Br)c1)c1cnccn1` it was 2.9; in that of `Cn1nc(C(F)(F)F)n(-c2ccccc2)c1=S`, 2.58; in that of `CCOc1cc2ncnc(Nc3cccc(Cl)c3)c2cc1OCC`, 4.31.
In the case of `CCCCC(=O)c1ccncc1` it was 2; in that of `O=[N+]([O-])c1ccc(CCBr)cc1`, 2.9.
As to `COC(=O)C(C)NP(=O)(OCC1C=CC(n2cc(C)c(=O)[nH]c2=O)O1)Oc1ccc(Br)cc1` (stereo not given), the logP stood at 1.6.
In the case of `CN(C)C(C)(C)CO` it was 0.29; in that of `CC(C)N(CC1CN=C(N)O1)C(C)C` (stereo not given), 0.98; in that of `Cc1cc2ccc(=O)oc2c2ccoc12`, 2.39.
In the case of `COc1ccc2c(c1)OCN(CCO[N+](=O)[O-])C2=O` it was 2.09.
